Series [1] can be described thus: In vitro release, USP dissolution apparatus 2, simulated gastric fluid pH 1.2. The settings on record: for Dissolution from PC90C10P0 in simulated gastric acid solution: within 0.5 h / plateau at 0.5 h, CPT11 40 mg/g, inhibitors 80 mg/g. The series is classed as physicochemical. The protocol: The temperature of the dissolution medium was maintained at 37 ± 0.5 °C. Aliquots of 5 mL of sample were withdrawn for the assay at predetermined time intervals and replaced with the same volume of fresh medium.

Series [2] can be described thus: Droplet size, PDI and appearance of nanoemulsions (LBSNENAs) after self-nanoemulsifying. It is filed as physicochemical. The settings on record: PC90C10P0 loaded with the named substance at its solubility; 25 °C.
Protocol: After self-nanoemulsifying LBSNENPs were placed in double-distilled (DD) water, the average particle size and size distribution of the so-obtained LBSNENAs were measured at a scattering angle of 90° with an N5 submicron particle size analyzer (Beckman Coulter, Brea, CA) at 25 °C, and the intensity autocorrelation of the sample was in a range of 5 × 10^4–10^6. The average diameter and polydispersity index (PDI) of three measurements were reported. […] Each data point is the mean of at least three individual trials.
A short description of series [3]: Solubility (loading amount) in 1 g of optimal LBSNENP PC90C10P0.
A short description of series [4]: In vivo pharmacokinetic study in rabbits: plasma CPT11. The protocol:
Plasma samples were stored at −80 °C before the high-performance liquid chromatographic (HPLC) analysis as described below. PK parameters are presented as the mean and standard deviation (SD) from individual rabbits in each group and were estimated through a noncompartmental analysis. The terminal elimination rate constant (Ke) was estimated from the slope of the log-linear phase of declining plasma concentrations of an […] versus time graph. The half-life (T1/2) was calculated using the following equation: T1/2 = ln2/Ke. The area under the concentration-time curve from beginning to the last time point (AUC0→last) was calculated using the trapezoidal method. Summation of AUC0→last and the concentration at the last measured point divided by Ke yielded AUC0→∞. Clearance (CL) was calculated by dividing the dose by AUC0→∞, and the volume of distribution (V) was determined by dividing CL by Ke. The absolute bioavailability (FAB) and relative bioavailability (FRB) were respectively calculated according to Equations (1) and (2), respectively (1) FAB=[AUC]poDIV/[AUC]IVDpo×100 where [AUC]po and [AUC]IV are the area under the plasma concentration curves (AUCs) after oral and intravenous administration. DIV and Dpo are the doses after […] administration, respectively. (2) FRB=[AUC]ADB/[AUC]BDA×100
where AUC for a LBSNENPs formulation [AUC]A and the AUC for the same drug in solution [AUC]B after oral administration were compared. DB and DA are the doses for solution and LBSNENPs formulation, respectively.
After centrifugation at 13,000 rpm for 30 min at 4 °C, 1.2 mL of ethyl acetate was collected, and then subjected to evaporation under N2 gas at 50 °C. The mobile phase (200 μL) was added to reconstitute the dried residual, vortexed for 5 min, and then centrifuged at 10^4 rpm and 25 °C for 3 min. The supernatant (180 µL) was collected, and 50 µL was injected into the HPLC system for analysis.

The conditions of series [5]: background statement, no reference given; cited from earlier work.
The mark [6] stands for this setting: New Zealand white, rabbit, in vivo, iv, 4 mg/kg.

Where a name gives a salt, the structure may show the parent alone.

For `CC1(C)[C@@H](O[C@H]2O[C@H](C(=O)O)[C@@H](O)[C@H](O)[C@H]2O[C@@H]2O[C@H](C(=O)O)[C@@H](O)[C@H](O)[C@H]2O)CC[C@]2(C)[C@H]3C(=O)C=C4[C@@H]5C[C@@](C)(C(=O)O)CC[C@]5(C)CC[C@@]4(C)[C@]3(C)CC[C@@H]12` [GA, glycyrrhizic acid], the “Dissolution from PC90C10P0 in simulated gastric acid solution” value in series [1] is 100%. In series [2], the “Mean droplet size of nanoemulsion after self-nanoemulsifying” value (from here on “Mean droplet size of nanoemulsion”) stood at 102.1 ± 0.67 nm and the “PDI of nanoemulsion after self-nanoemulsifying” value (“PDI of nanoemulsion” below) worked out at 0.602 ± 0.031. In series [3], the “Solubility (loading amount) in 1 g of PC90C10P0” value (“Solubility (loading amount)” for short) amounted to 200 mg/g.

In the case of `CCc1c2c(nc3ccc(OC(=O)N4CCC(N5CCCCC5)CC4)cc13)-c1cc3c(c(=O)n1C2)COC(=O)[C@]3(O)CC` [CPT11, Irinotecan hydrochloride], the “Dissolution from PC90C10P0 in simulated gastric acid solution” value in series [1] is on record as 100%. In addition, in series [4] (I.V. (4 mg/kg), reference group), the “FAB of CPT11” value is 100%. In addition, in series [4] (setting [6]), the AUC(0-inf) is 287 ± 104 ng·h/mL, the area under the curve AUC(0-t) came out at 287 ± 104 ng·h/mL and the concentration peaked (Cmax) at 341 ± 98.6 ng/mL. Besides, in series [2], the “Mean droplet size of nanoemulsion” value is listed as 157.3 ± 2.08 nm and the “PDI of nanoemulsion” value is 0.665 ± 0.020. Besides, in series [3], the “Solubility (loading amount)” value turned out to be 40 mg/g.

For `CCc1c2c(nc3ccc(O)cc13)-c1cc3c(c(=O)n1C2)COC(=O)[C@]3(O)CC` [SN-38], in series [5], the “Times more active than CPT11” value is reported as 100–1000 times.

As to `O=c1cc(-c2ccccc2)oc2cc(O)c(O)c(O)c12` [BA, Baicalein], the “Dissolution from PC90C10P0 in simulated gastric acid solution with 1% Tween 80” value in series [1] (plateau at 0.5 h, 80 mg/g) is on record as “not observed”. The “Dissolution from PC90C10P0 in simulated gastric acid solution” value in series [1] is reported as “appeared to be over saturated”. Moreover, in series [2], the “Mean droplet size of nanoemulsion” value was determined as 171.0 ± 6.52 nm and the “PDI of nanoemulsion” value came out at 0.863 ± 0.087. Moreover, in series [3], the “Solubility (loading amount)” value came to 80 mg/g.

As for silymarin [SM], the “Solubility (loading amount)” value in series [3] is 130 mg/g.

Regarding `CC1(C)[C@@H](O)CC[C@]2(C)[C@H]3C(=O)C=C4[C@@H]5C[C@@](C)(C(=O)O)CC[C@]5(C)CC[C@@]4(C)[C@]3(C)CC[C@@H]12` [GLA, glycyrrhetinic acid], the “Dissolution from PC90C10P0 in simulated gastric acid solution” value in series [1] is on record as 100%. Besides, in series [2], the “Mean droplet size of nanoemulsion” value was 143.5 ± 0.04 nm and the “PDI of nanoemulsion” value is 0.559 ± 0.063. For the same compound, in series [3], the “Solubility (loading amount)” value was 80 mg/g.

The values are drawn from paper PMC8525948 (Drug Delivery, 2021).
